# According to patent US20070161691A1, “Modified-protein formation inhibitor” (TOKAI UNIVERSITY, priority 2003, published 2007):
# Tests used:
# pentosidine formation = test: AGEs (pentosidine) formation inhibiting effect in plasma from dialysis patients; assay type: biochemical, human
# Experimental: Before dialysis, blood samples were obtained from non-diabetic volunteer dialysis patients with renal failure, and fresh heparinized plasma samples were prepared therefrom Pooled plasma obtained from several patients (n=3˜5) was served to the test. 4-(5-phenyltetrazol-1-ylmethyl)-morpholine (Compound 1), 5-methyl-1-(5-phenyltetrazol-1-ylmethyl)-3a,6a-dihydro-1H-pyrrolo[3,4-d][1,2,3]triazole-4,6-dione (Compound 2) or (5-phenyltetrazol-1-yl)methanol (Compound 3) adjusted to a designed concentration ([…]), in DMSO solution (100 μl), was added to the pooled plasma (900 μl) and incubated at 37° C. for 7 days in the presence of air. Then, the amount of pentosidine was measured to estimate the suppressive effect on the glycation of protein.
# Measurement of the amount of pentosidine was made as follows: to each incubated sample (50 μL) was added an equal volume of 10% trichloroacetic acid, followed by centrifugation at 5000 g for 5 minutes; after removal of the supernatant, the pellet was washed by 5% trichloroacetic acid (300 μL); the pellet was dried under reduced pressure and then subjected to hydrolysis in 6N HCI solution (100 μL) at 110° C. under nitrogen atmosphere for 16 hours; to the hydrolysate, 5N NaOH (100 μL) and 0.5 M phosphate buffer (pH 7.4) (200 μL) were added, followed by filtration through a porefilter with a pore size of 0.5 μm and dilution with PBS. The concentration of free pentosidine was determined by reversed-phase HPLC using a fluorescence detector (RF-10A, Shimazu Seisakusho) (Miyata, T. et al.: Proc. Natl. Acad. Sci. USA, 93, 2353-2358, 1996). The effluent was monitored at 335/385 nm of excitation/emission wavelength. Synthetic pentosidine was used as the standard. The detection limit of pentosidine was 0.1 pmol/mg protein.
# The inhibiting effect was estimated by comparing with positive control (aminoguanidine and pyridoxamine (Sigma)) reacted in the same manner as 4-(5-phenyltetrazol-1-yl-methyl)-morpholine (Compound 1), 5-methyl-1-(5-phenyltetrazol-1-ylmethyl)-3a,6a-dihydro-1H-pyrrolo[3,4-d][1,2,3]triazole-4,6-dione (Compound 2) and (5-phenyltetrazol-1-yl)methanol (Compound 3).
# [1] = Suppressive effect on the hydroxylation of phenylalanine with hydroxy radical; assay type: biochemical; details: in comparison with pyridoxamine as positive control; 0.1, 0.5, 2.5 mM
# Experimental: Phenylalanine (final concentration: 1 mM), test compound (final concentration: 0.1, 0.5, 2.5 mM), hydrogen peroxide (final concentration: 5 mM) and cupric sulfate (final concentration: 0.1 mM) were dissolved in 200 mM of phosphate buffer (pH7.4) (total volume 500 μL), followed by incubation at 37° C. for 4 hours. Then, DTPA (final concent-ration: 1 mM) and 260 unit of catalase were added thereto to interrupt the reaction. The amounts of o-tyrosine and m-tyrosine formed were determined by HPLC in the following manner: after a designed period of time, the reaction mixture was diluted to 100 folds; 20 μL of the dilution was injected onto HPLC, separation was made with C18 column (4.6×250 mm, 5 μm; Nomura Kagaku) and detection was effected using a fluorescence detector (RF-10A: Shimazu Seisakusho) under the condition of an excitation wavelength of 275 nm and a fluorescence wavelength of 305 nm. In the mobile phase, the flow rate was 0.6mL/min and the concentration of buffer B was varied from 6.5% to 10% in 25 minutes (buffer A: 0.10% trifluoroacetic acid; buffer B: 80% acetonitrile containing 0.08% trifluoroacetic acid).
# [2] = Acute toxicity examination, single oral administration to mouse; details: male, in vivo, ICR mice, single oral administration
# Experimental: (§1) For 4-(5-phenyltetrazol-1-ylmethyl)-morpholine (compound 1) and (5-phenyltetrazol-1-yl) methanol (compound 3), acute toxicity test was carried out using mice. Each compounds were suspended in carboxymethyl cellulose in given concentration to prepare sample for oral administration. Then single oral administration was done to mouse. The dose is 100, 250, 500, 1000 and 2000 mg/kg. Five ICR mice (male , 8 weeks aged, closed colony) were used in each group. The test material was administrated to determine LD50 value.
# ICR mice = test: as above; details: in vivo, po
# Experimental: as §1
# [3] = test system: middle cerebral artery ischemia-reperfusion model; test: Cerebroprotective action in middle cerebral artery ischemia-reperfusion model; assay type: in vivo, rat; details: for cerebral infarction nest: dosed 5 minutes and 5 hours after occlusion
# Experimental: CD(SD)IGS male rats (Japan Charles River Kabushiki […], Hino farm, room No. 22, specific product) (8 rats per one group) having body weight 270 to 350 g were anesthetized by 2% isoflurane (mixed bas comprising of 70% N2O (laughter gas) and 30% O2) to immobilize, and then the rats were put on warming plate to keep the rectal and brain temperature 37 to 38° C. After that, to observe the stability in the examination, canula which was made by polyethylene (PE-50, Becton Dickinson) was inserted and left in caudal artery of said animal, and this made blood drawing and blood pressure determining to monitor the biochemical parameter such as blood sugar level, hematocrit, CO2 concentration, oxygen partial pressure, pH, blood pressure and etc. In addition, cerebral blood flow in cortex was determined by laser doppler […] (Neuroscience.inc: OMEGA FLOW (FLO-C1)), putting the detection site directly on cranium on the point left 4 mm from bregma. Left neck of such animal was incised, and from internal and external carotid fork of common carotid artery to upstream of internal carotid, nylon surgical thread (length 16 mm, diameter 0.2 to 0.3 mm, with silicon coating on its tip 3 mm) was passed and left, middle cerebral artery was obstructed for 2 hours. After that, the thread was removed to release the middle cerebral artery, and blood was reperfused for 21 hours. To each animals, 3.0 mg/kg of 3-methyl-1-phenyl 2-pyrazolin-5-one (control, hereinafter referring to edaravone) and 4.23 mg/kg of 4-(5-phenyltetrazol-1-ylmethyl)-morpholine (compound 1) (test compound, hereinafter referring to TM-3001) were respectively administered twice by cannula which is left in caudal artery 5 minutes and 5 hours after middle cerebral artery occlusion. After said operation, the brain was removed from said animal, and after preparing 7 brain slices with 2 mm thickness, to TTC stain (0.8 g of 2,3,5-triphenyltetrazolium chloride (Sigma) dissolved in 40 ml of saline) were soaked at 37° C. for 15 minutes to stain, and fixed by 10% neutral formalin liquid to prepare specimen. Such specimens were created the image by CCD camera respectively, and analysed according to method of Swanson et al. (J Cereb Blood Flow Metab 10:290-293; […]). […] Furthermore, function recovering was estimated before and after the operation by rotor rod test that estimates how much they can walk on rotating rotor.
# [4] = test system: middle cerebral artery ischemia-reperfusion model; test: as above; assay type: in vivo, rat; details: after reperfusion 22 hrs
# [5] = comparing to diluent single administration
smiles,measurement,setting,value
"c1ccc(-c2nnnn2CN2CCOCC2)cc1 [Compound 1, 4-(5-phenyltetrazol-1-ylmethyl)-morpholine]",Pentosidine formation,"pentosidine formation; 5 mM, plasma from dialysis patients, 37° C., 7 days, DMSO negative control 2.960",0.367 nmol/mL
same,pentosidine formation suppression,pentosidine formation; plasma from the patients with dialysis,suppressed remarkably
same,"hydroxylation of phenylalanine with hydroxy radical, suppression",[1],suppressed remarkably
same,LD50,[2],> 1000 mg/kg
same,toxicity,ICR mice,lower toxicity
same,"Nervous condition estimation test, Ave (Bederson grade)",[3]; after occlusion 10 min,2.4
same,"Nervous condition estimation test, Ave (Bederson grade)",[3]; after occlusion 2 hrs,2.9
same,"Nervous condition estimation test, Ave (Bederson grade)",[3]; after reperfusion 10 min,2.6
same,"Nervous condition estimation test, Ave (Bederson grade)",[3]; after reperfusion 3 hrs,2.4
same,"Nervous condition estimation test, Ave (Bederson grade)",[3]; after reperfusion 4 hrs,2.5
same,"rotor rod test, Ave (count from rotor rod machine)",[3]; before occlusion,300.0
same,improvement for nervous condition,[3]; [5],remarkably shown
same,"recovering the function, rotor rod test",[3]; [5],remarkably shown
same,cerebral infarction nest,[3]; [5],reduction of the cerebral infarction nest
same,cerebral infarction nest,"[3]; comparing to diluent single administration, listed as TM-3001",significantly reduced
same,"rotor rod test, Ave (count from rotor rod machine)",[3]; reperfusion,64.8
same,"rotor rod test, ratio to before occlusion (%), Ave",[3]; reperfusion vs before occlusion,21.6%
same,"Nervous condition estimation test, Ave (Bederson grade)",[4],1.8
